Values after ≈ are worked out from the molar mass of the structure shown.
Columns and labels:
HL-60 = assay: Cytotoxicity against human HL60 cells; type: functional, cell-based
Bacillus subtilis = assay: Antimicrobial activity against Bacillus subtilis NBRC 3134; type: functional

MIC (Bacillus subtilis)	Structure (SMILES)	IC50 (HL-60)
–	CCCCCC[C@H]1C(=O)O[C@H](C)[C@H](NC(=O)c2cccc(NC=O)c2O)C(=O)O[C@@H](C)[C@@H]1OC(=O)CC(C)C [ANTIMYCIN A]	45 µM
10 mg/L (≈ 14.2 µM)	C[C@@H]1Cc2c(c(O)c3c(=O)cc4oc5c(O)cc(O[C@@H]6O[C@H](CO)[C@@H](O)[C@H](O)[C@H]6O)c6c(=O)c7c8c(c56)c4c3c2O[C@@]8(O)[C@@H](C)O[C@@H]7C)[C@@H](C)O1 [VIRIDAPHIN A1 GLUCOSIDE]	23 µM
